Measurements reported in paper PMC6828666, “Discovery of holoenzyme-disrupting chemicals as substrate-selective CK2 inhibitors” (Scientific Reports, 2019).
Counter-ions that a name gives are not always drawn.

How the values were obtained:
[1] = target: [35S]methionine-labeled CK2α (human) (UniProt P68400); experiment: radioligand binding; biotinylated MBP-CK2β (250 ng/well) on streptavidin-coated 96-well plates; soluble [35S]methionine-labeled CK2α (10^5 cpm) with or without competitor; 50 mM Tris/HCl pH 7.2, 0.4 M NaCl; 1 h at room temperature, washed three times, scintillation counting
CK2α2β2 holoenzyme = target: T1, CK2α2β2 holoenzyme (Homo sapiens, UniProt P68400); experiment: CK2 kinase assay with CK2β-dependent peptide substrate (eIF2-derived); type: biochemical; conditions: compound at 50 μM; CK2β-dependent peptide substrate
T1 construct: made in house; host or cells: Escherichia coli (CK2α)
Experimental: First, all the compounds were dissolved at 200 μM in 50 mM Tris-HCl pH 7.5 buffer containing 0.1 M NaCl and 5% DMSO; the compounds that precipitated under these conditions were discarded. The 32 remaining compounds were diluted at 200 μM in the kinase buffer and centrifuged at 14,000 g. The supernatant was then assayed for ability to inhibit phosphorylation of a CK2β-dependent peptide substrate. For this, a 22-residue long N-terminal fragment of the eukaryotic translation initiation factor 2 (eIF2), known to be exclusively phosphorylated by the CK2α2β2 holoenzyme[4] was used as a substrate. […]
Final concentration of ATP was 100 μM. Assays were performed under linear kinetic conditions for 5 min at room temperature before termination by the addition of 60 μL of 4% TCA. ^32P incorporation in peptide substrate was determined as previously described. […]

CK2α = CK2α (Homo sapiens, UniProt P68400); experiment: SPR binding studies on captured GST-CK2α; conditions: surface plasmon resonance
Experimental: SPR competition studies (Fig. 2i) were performed using a BIAcore 3000 instrument (BIAcore AB) equipped with a CM5 sensor chip (BIAcore AB). After activation with a solution of N-hydroxysuccinimide and N-ethyl-N-(dimethylaminopropyl)carbodiimide hydrochloride (coupling solution BIAcore AB), the anti-GST antibody diluted at 30 μg/ml in 10 mM acetate buffer pH 5.0 was injected at a flow rate of 5 μL/min for 7 min. All the surfaces were blocked with a 3 min injection at 10 μL/min of 1 M ethanolamine, pH 8.0. GST-CK2α (50 μg/ml) was immobilized on the surface at a flow rate of 5 μL/min in HBS (10 mM Hepes pH 7.3, 0.15 M NaCl, 3 mM EDTA, 0.005% polysorbate 20). MBP-CK2β diluted at 50 μg/ml in HBS buffer was injected over the surface at a flow rate of 5 μL/min in presence of various compound 1 concentration. Regeneration of the surfaces was achieved by injection of 10 mM glycine-HCl pH 2.2. SPR binding studies (Supplementary Fig. S7) were performed using a Reichert SR7000DC instrument optical biosensor (Reichert Technologies) equipped with a CMD500m sensor chip obtained from XanTec Bioanalytics. CK2α was immobilized by a capturing approach using a monoclonal anti-GST antibody (27 kDa, Clone GST-R 6G9 produced in rat, SAB4200055 Sigma Aldrich). Prior to use, the anti-GST antibodies were purified twice by micro dialysis at 4 °C (Membrane: dialysis tubing benzoylated, 9 mm, D2272-5FT) in 10 mM sodium acetate, pH = 5. Anti-GST antibodies were immobilized using amine-coupling chemistry at 12 °C. The surfaces of all two flow cells were activated for 7 min with a 1:1 mixture of 0.1 M NHS (N-hydroxysuccinimide) and 0.1 M EDC (3-(N,N-dimethylamino) propyl-N-ethylcarbodiimide) at a flow rate of 10 μL/min. The antibody at a concentration of 30 μg/mL in 10 mM sodium acetate, pH 5.0, was immobilized at a density of 2000 RU on flow cell 2; flow cell 1 was left blank to serve as a reference surface. All the surfaces were blocked with a 3 min injection at 10 μL/min of 1 M ethanolamine, pH 8.0. GST tagged CK2α at a concentration of 50 μg/mL in 10 mM HEPES, 150 mM NaCl, 3 mM EDTA, 0.005% (v/v) polysorbate 20, pH = 7.4 was captured at a density of 900 RU on flow cell 2. In order to collect kinetic binding data, analytes in 10 mM HEPES, 150 mM NaCl, 3 mM EDTA, 0.005% (v/v) polysorbate 20, 1% DMSO (v/v), 100 μM ATP, pH = 7.4 were injected over the two flow cells at concentrations of 50, 25, 12.5, 6.25, 3.12, 1.56 μM at a flow rate of 25 μL/min and at a temperature of 25 °C. The complex was allowed to associate and dissociate for 120 s. Duplicate injections (in random order) of each sample and a buffer blank were flowed over the two surfaces. Affinities were obtained after treatments (DMSO calibration, blank and references subtractions) using the software Scrubber 2.0c.
Fig. S7. Binding kinetics of compounds 2-6 by surface plasmon resonance. For each compound, sensorgrams (black line) and global fits (orange line) are depicted with the corresponding chemical structure and the fitted kinetics parameters. Experiments show representative data of two identical repeats.

MCF10A cells = experiment: Cell growth inhibition (IncuCyte); type: cell-based, human; conditions: 24 h
Experimental: Cells grown on 96-well flat-bottomed plates (Corning Falcon) were tracked using an Essen IncuCyte Zoom live-cell microscopy instrument, an automated live cell imager with high-throughput capabilities and built-in data analysis. Experiments were conducted at 37 °C and 5% CO2. The software incorporated into the IncuCyte Zoom was used to analyze the images.
MCF10A and MDA-MB231 cells were seeded into 96-well plates at a density (1 × 10^4 and 2 × 10^4 cells/well, respectively) and allowed to attach overnight. Bright field images were captured every 3 h for the duration of the experiment. The detection software was calibrated specifically for MCF10A and MDA-MB231 to ensure accurate distinction of cells from empty space. Cell proliferation data were obtained by the cell confluence increment in each of the treatments and expressed as percentage relative to that of control cells.
Fig. S9. […] (a) MCF10A cells were incubated with increasing concentrations of 6 for 24 h. (b) Inset: western blot analysis of CK2 subunits in parental MCF10A cells (WT) or CK2β knockdown MCF10A cells (∆CK2β). Uncropped blots are shown in Supplementary Fig. S16. MCF10A WT (r,p) or MCF10A ∆CK2β (○,●) were incubated with DMSO (r,○) or 50 μM 6 (p,●) for the indicated time. Cell growth was monitored using an Essen IncuCyte Zoom live-cell microscopy incubator. Images were captured every 15 min for the duration of the experiment. […]

[2] = tested on: panels of different kinases; parameters: method as in PMID 28451126; conditions: cited from earlier work

CK2α, sequence (P68400 whole entry): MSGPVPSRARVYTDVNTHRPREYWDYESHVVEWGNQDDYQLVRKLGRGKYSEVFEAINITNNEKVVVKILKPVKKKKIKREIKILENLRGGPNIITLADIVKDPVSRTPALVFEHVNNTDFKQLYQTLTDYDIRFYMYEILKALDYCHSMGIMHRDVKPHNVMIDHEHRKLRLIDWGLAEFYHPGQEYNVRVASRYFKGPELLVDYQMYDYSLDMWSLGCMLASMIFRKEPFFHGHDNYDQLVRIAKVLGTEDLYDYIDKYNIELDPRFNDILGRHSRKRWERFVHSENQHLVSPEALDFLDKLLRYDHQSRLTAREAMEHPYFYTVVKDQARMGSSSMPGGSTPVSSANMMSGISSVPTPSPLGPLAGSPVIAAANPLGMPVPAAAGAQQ
T1 sequence (P68400 whole entry): as above
[35S]methionine-labeled CK2α (human), sequence (P68400 whole entry): as above

| inhibition at 50 µM (CK2α2β2 holoenzyme) | Kd (CK2α) | Molecule | further results |
| --- | --- | --- | --- |
|  |  | CK2β-derived cyclic peptide, Pc | percent inhibition of CK2α/CK2β complex formation at 60 μM [1]: 90% |
| 66% | 43 ± 2 µM | O=C(OCC1CCN(CCNS(=O)(=O)c2ccccc2)CC1)c1c[nH]c2ccc(F)cc12 [Compound 5, (1-(2-(Phenylsulfonamido)ethyl)piperidin-4-yl)methyl 5-fluoro-1H-indole-3-carboxylate hydrochloride] |  |
| 25% | 44 ± 6 µM | CS(=O)(=O)NCCN1CCC(COC(=O)c2c[nH]c3ccc(F)cc23)CC1 [Compound 2, (1-(2-(Methylsulfonamido)ethyl)piperidin-4-yl)methyl 5-fluoro-1H-indole-3-carboxylate hydrochloride] |  |
|  |  | O=C(O)c1ccc2c(c1)nc(Nc1cccc(Cl)c1)c1ccncc12 [CX-4945] | Gini coefficient [2]: 0.62 |

| Molecule | inhibition at 50 µM (CK2α2β2 holoenzyme) | Kd (CK2α) | further results |
| --- | --- | --- | --- |
| COc1[nH]c2ccc(F)cc2c1C(=O)OCC1CCN(CCNS(=O)(=O)c2ccccc2)CC1.Cl [Compound 6, 1-(2-(Phenylsulfonamido)ethyl)piperidin-4-yl)methyl 5-fluoro-2-methoxy-1H-indole-3-carboxylate hydrochloride] |  | 30 ± 2 µM | GI50 (MCF10A cells): 22 ± 3 µM |
